Read-outs that look alike come from different tables or passages of the source.
Tests used:
KDR (VEGFR-2) = KDR (VEGFR-2) (Homo sapiens, UniProt P35968); assay: In vitro inhibition of tyrosine kinases; format: biochemical; settings: 300 nM (170.67 ng/mL)
[1] = PK of topical ocular sodium phosphate-based Gel Drop, concentrations 1 hour after last dose; format: in vivo, Dutch-belted rabbits; settings: Dutch-belted, rabbit
Text: The Gel Drop of Compound-I was applied to eyes of Dutch-belted rabbits.

KDR (VEGFR-2), sequence (P35968 20-1356): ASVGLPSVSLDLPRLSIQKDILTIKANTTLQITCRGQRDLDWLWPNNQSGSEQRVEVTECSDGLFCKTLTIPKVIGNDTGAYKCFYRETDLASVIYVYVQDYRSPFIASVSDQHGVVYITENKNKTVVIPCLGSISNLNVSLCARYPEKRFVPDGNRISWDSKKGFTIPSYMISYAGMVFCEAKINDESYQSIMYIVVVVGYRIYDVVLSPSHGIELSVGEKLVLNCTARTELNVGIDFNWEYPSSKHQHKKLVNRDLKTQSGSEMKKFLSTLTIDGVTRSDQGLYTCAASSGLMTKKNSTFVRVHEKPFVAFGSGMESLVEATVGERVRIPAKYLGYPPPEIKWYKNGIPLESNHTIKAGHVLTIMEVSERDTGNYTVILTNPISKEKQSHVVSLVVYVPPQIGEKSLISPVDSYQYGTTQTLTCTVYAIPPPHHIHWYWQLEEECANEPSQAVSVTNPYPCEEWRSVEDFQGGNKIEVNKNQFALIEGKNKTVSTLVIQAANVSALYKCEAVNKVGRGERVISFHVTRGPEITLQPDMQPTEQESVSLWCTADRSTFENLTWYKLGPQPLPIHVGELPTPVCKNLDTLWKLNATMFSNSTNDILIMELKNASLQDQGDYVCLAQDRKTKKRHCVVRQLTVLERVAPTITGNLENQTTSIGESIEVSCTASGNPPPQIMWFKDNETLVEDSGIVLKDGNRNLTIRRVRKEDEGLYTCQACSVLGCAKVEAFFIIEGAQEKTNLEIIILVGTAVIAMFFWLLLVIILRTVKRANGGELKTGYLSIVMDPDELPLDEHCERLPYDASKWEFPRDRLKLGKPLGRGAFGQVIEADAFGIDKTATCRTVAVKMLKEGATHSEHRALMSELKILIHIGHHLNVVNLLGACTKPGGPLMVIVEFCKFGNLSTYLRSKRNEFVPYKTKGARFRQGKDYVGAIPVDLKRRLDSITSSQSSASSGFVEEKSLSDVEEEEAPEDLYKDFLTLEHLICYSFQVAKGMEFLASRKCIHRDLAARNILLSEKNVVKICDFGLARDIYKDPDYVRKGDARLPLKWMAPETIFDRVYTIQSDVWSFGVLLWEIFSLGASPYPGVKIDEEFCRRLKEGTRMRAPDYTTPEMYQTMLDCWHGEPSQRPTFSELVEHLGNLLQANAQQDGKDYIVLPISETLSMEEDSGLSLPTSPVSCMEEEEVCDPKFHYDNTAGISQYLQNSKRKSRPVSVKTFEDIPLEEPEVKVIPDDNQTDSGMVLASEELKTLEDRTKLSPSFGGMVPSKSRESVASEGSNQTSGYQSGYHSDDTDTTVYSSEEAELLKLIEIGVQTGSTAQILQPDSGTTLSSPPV

SMILES: Cl.NC(=O)c1c(OCc2c(F)cc(Br)cc2F)nsc1NC(=O)NCCCCN1CCCC1 [Compound-I, 3-[(4-bromo-2,6-difluorophenyl)methoxy]-5-[[[[4-(1-pyrrolidinyl)butyl]amino]carbonyl]amino]-4-isothiazolecarboxamide hydrochloride]
- VEGFR-2 kinase function (KDR (VEGFR-2)): completely inhibited
- concentration at 1 h ([1]; AH (aqueous humor), 2 mg/ml, pH 6, 2 mg/ml pH 6 BAK 0.005% Gly 2% Osmo 232, 3x/day 5 days, read-out: Mean [AH]): 30 nM
- concentration at 1 h ([1]; AH (aqueous humor), 2 mg/ml, pH 6, 2 mg/ml pH 6.0 Phos 0.02% BAK 0.005% Gly 2% PS80 1% Tylox 0.2%, 3x/day 5 days, read-out: Mean [AH]): 13.8 nM
- concentration at 1 h ([1]; AH (aqueous humor), 2 mg/ml, pH 6, 2 mg/ml pH 6 Phos 0.05% BAK 0.005% Gly 2% PS80 1% Osmo 261, 3x/day 5 days, read-out: Mean [AH]): 25.5 nM
- concentration at 1 h ([1]; AH (aqueous humor), 2 mg/ml, pH 6, 2 mg/ml pH 6.0 Phos 0.05% BAK 0.005% Gly 2%, 3x/day 5 days, read-out: Mean [AH]): 32.2 nM
- concentration at 1 h ([1]; AH (aqueous humor), 2 mg/ml, pH 6, 2 mg/ml pH 6.0 Phos 0.2% BAK 0.005% Gly 2%, 3x/day 5 days, read-out: Mean [AH]): 14.8 nM
- concentration at 1 h ([1]; AH (aqueous humor), 4 mg/ml, pH 6, 4 mg/ml pH 6.0 Phos 0.2% BAK 0.005% Gly 2%, 3x/day 5 days, read-out: Mean [AH]): 25 nM
- concentration at 1 h ([1]; AH (aqueous humor), 4 mg/ml, pH 6, 4 mg/ml pH 6.0 Phos 2% BAK 0.005% Gly 2% PS80 1% Tylox 0.2%, 3x/day 5 days, read-out: Mean [AH]): 21.1 nM
- concentration at 1 h ([1]; AH (aqueous humor), 6 mg/ml, pH 5.9, 6 mg/ml pH 5.9 Phos 0.05% BAK 0.005% Gly 2% PS80 1% Tylox 0.1% Polox 0.2% Osmo 270, 3x/day 4 days, read-out: Mean [AH]): 222 nM
- concentration at 1 h ([1]; AH (aqueous humor), 6 mg/ml, pH 5.9, 6 mg/ml pH 5.9 Phos 0.1% BAK 0.005% Gly 2% Polox 0.2% Osmo 257, 3x/day 4 days, read-out: Mean [AH]): 55.4 nM
- concentration at 1 h ([1]; aqueous humor (AH), 1 mg/ml, pH 6, 1 mg/ml pH 6 BAK 0.005% Gly 2% Osmo 234, 3x/day 5 days, read-out: Mean [AH]): 17.1 nM
- concentration at 1 h ([1]; aqueous humor (AH), 1 mg/ml, pH 6, 1 mg/ml pH 6.0 Phos 0.05% BAK 0.005% Gly 2% PS80 0.01% Tylox 0.2%, 3x/day 5 days, read-out: Mean [AH]): 9.09 nM
- concentration at 1 h ([1]; aqueous humor (AH), 1 mg/ml, pH 6, 1 mg/ml pH 6 Phos 0.05% BAK 0.005% Gly 2%, 3x/day 5 days, read-out: Mean [AH]): 16.4 nM
- concentration at 1 h ([1]; aqueous humor (AH), 1 mg/ml, pH 6, 1 mg/ml pH 6.0 Phos 0.2% BAK 0.005% Gly 2% PS80 1% Tylox 0.2%, 3x/day 5 days, read-out: Mean [AH]): 6.27 nM
- concentration at 1 h ([1]; aqueous humor (AH), 1 mg/ml, pH 6, 1 mg/ml pH 6.0 Phos 0.2% BAK 0.005% Gly 2%, 3x/day 5 days, read-out: Mean [AH]): 20.6 nM
- concentration at 1 h ([1]; aqueous humor (AH), 2 mg/ml, pH 6, 2 mg/ml pH 6 Phos 0.05% BAK 0.005% Gly 2% Osmo 244, 3x/day 5 days, read-out: Mean [AH]): 27.8 nM
- concentration at 1 h ([1]; aqueous humor (AH), 2 mg/ml, pH 6, 2 mg/ml pH 6.0 Phos 0.05% BAK 0.005% Gly 2% PS80 1% Tylox 0.2%, 3x/day 5 days, read-out: Mean [AH]): 18.2 nM
- concentration at 1 h ([1]; aqueous humor (AH), 2 mg/ml, pH 6, 2 mg/ml pH 6.0 Phos 0.1% BAK 0.005% Gly 2%, 3x/day 5 days, read-out: Mean [AH]): 18.9 nM
- concentration at 1 h ([1]; aqueous humor (AH), 2 mg/ml, pH 6, 2 mg/ml pH 6 Phos 0.2% BAK 0.005% Gly 2% Osmo 257, 3x/day 5 days, read-out: Mean [AH]): 29.5 nM
- concentration at 1 h ([1]; aqueous humor (AH), 2 mg/ml, pH 6, 2 mg/ml pH 6 Phos 0.2% BAK 0.005% Gly 2% PS80 1% Osmo 281, 3x/day 5 days, read-out: Mean [AH]): 19.7 nM
- concentration at 1 h ([1]; aqueous humor (AH), 2 mg/ml, pH 6.1, 2 mg/ml pH 6.1 Phos […] Osmo 34, 3x/day 4 days, read-out: Mean [AH]): 13.7 nM
- concentration at 1 h ([1]; choroid, 1 mg/ml, pH 6, 1 mg/ml pH 6 BAK 0.005% Gly 2% Osmo 234, 3x/day 5 days, read-out: MEAN [choroid]): 359 nM
- concentration at 1 h ([1]; choroid, 1 mg/ml, pH 6, 1 mg/ml pH 6 BAK 0.005% Gly 2% PS80 1% Tylox 0.1% Polox 0.2% Osmo 237, 3x/day 5 days, read-out: MEAN [choroid]): 339 nM
- concentration at 1 h ([1]; choroid, 1 mg/ml, pH 6, 1 mg/ml pH 6.0 Phos 0.05% BAK 0.005% Gly 2% PS80 0.01% Tylox 0.2%, 3x/day 5 days, read-out: MEAN [choroid]): 295 nM
- concentration at 1 h ([1]; choroid, 1 mg/ml, pH 6, 1 mg/ml pH 6 Phos 0.05% BAK 0.005% Gly 2%, 3x/day 5 days, read-out: MEAN [choroid]): 398 nM
- concentration at 1 h ([1]; choroid, 1 mg/ml, pH 6, 1 mg/ml pH 6.0 Phos 0.2% BAK 0.005% Gly 2% PS80 1% Tylox 0.2%, 3x/day 5 days, read-out: MEAN [choroid]): 423 nM
- concentration at 1 h ([1]; choroid, 1 mg/ml, pH 6, 1 mg/ml pH 6.0 Phos 0.2% BAK 0.005% Gly 2%, 3x/day 5 days, read-out: MEAN [choroid]): 519 nM
- concentration at 1 h ([1]; choroid, 1 mg/ml, pH 6.1, 1 mg/ml pH 6.1 BAK 0.005% Gly 2% Osmo 230, 3x/day 5 days, read-out: MEAN [choroid]): 537 nM
- concentration at 1 h ([1]; choroid, 2 mg/ml, pH 5.9, 2 mg/ml pH 5.9 Phos 0.05% BAK 0.005% Gly 2% Osmo 233, 3x/day 5 days, read-out: MEAN [choroid]): 362 nM
- concentration at 1 h ([1]; choroid, 2 mg/ml, pH 6, 2 mg/ml pH 6 BAK 0.005% Gly 2% Osmo 232, 3x/day 5 days, read-out: MEAN [choroid]): 589 nM
- concentration at 1 h ([1]; choroid, 2 mg/ml, pH 6, 2 mg/ml pH 6.0 Phos 0.02% BAK 0.005% Gly 2% PS80 1% Tylox 0.2%, 3x/day 5 days, read-out: MEAN [choroid]): 599 nM
- concentration at 1 h ([1]; choroid, 2 mg/ml, pH 6, 2 mg/ml pH 6 Phos 0.05% BAK 0.005% Gly 2% Osmo 244, 3x/day 5 days, read-out: MEAN [choroid]): 422 nM
- concentration at 1 h ([1]; choroid, 2 mg/ml, pH 6, 2 mg/ml pH 6 Phos 0.05% BAK 0.005% Gly 2% PS80 1% Osmo 261, 3x/day 5 days, read-out: MEAN [choroid]): 559 nM
- concentration at 1 h ([1]; choroid, 2 mg/ml, pH 6, 2 mg/ml pH 6.0 Phos 0.05% BAK 0.005% Gly 2%, 3x/day 5 days, read-out: MEAN [choroid]): 528 nM
- concentration at 1 h ([1]; choroid, 2 mg/ml, pH 6, 2 mg/ml pH 6.0 Phos 0.1% BAK 0.005% Gly 2%, 3x/day 5 days, read-out: MEAN [choroid]): 525 nM
- concentration at 1 h ([1]; choroid, 2 mg/ml, pH 6, 2 mg/ml pH 6 Phos 0.2% BAK 0.005% Gly 2% PS80 1% Osmo 281, 3x/day 5 days, read-out: MEAN [choroid]): 357 nM
- concentration at 1 h ([1]; choroid, 2 mg/ml, pH 6, 2 mg/ml pH 6.0 Phos 0.2% BAK 0.005% Gly 2%, 3x/day 5 days, read-out: MEAN [choroid]): 532 nM
- concentration at 1 h ([1]; choroid, 2 mg/ml, pH 6.1, 2 mg/ml pH 6.1 BAK 0.005% Gly 2% Osmo 229, 3x/day 5 days, read-out: MEAN [choroid]): 462 nM
- concentration at 1 h ([1]; choroid, 2 mg/ml, pH 6.1, 2 mg/ml pH 6.1 Phos 0.05% BAK 0.005% Gly 2% PS80 1% Tylox 0.1% Osmo 239, 3x/day 5 days, read-out: MEAN [choroid]): 660 nM
- concentration at 1 h ([1]; choroid, 2 mg/ml, pH 6.1, 2 mg/ml pH 6.1 Phos […] Osmo 22, 3x/day 5 days, read-out: MEAN [choroid]): 356 nM
- concentration at 1 h ([1]; choroid, 2 mg/ml, pH 6.1, 2 mg/ml pH 6.1 Phos […] Osmo 34, 3x/day 4 days, read-out: MEAN [choroid]): 466 nM

Reference: patent publication US10307404B1, “Ocular formulations for drug-delivery to the posterior segment of the eye” (priority 2013, dated 2019)
